The values below are quoted from earlier work in patent US10702606B2, “Peptide composition” (MENICON CO., LTD., priority 2015, dated 2020).

By pKa is commonly meant the pH at which an ionisable group is half protonated.

Where two headings read alike, the source gives them in different places.

With `NCCN` [Ethylenediamine, ethylenediamine], the pKa is 7.1 (25° C., only a pKa of 3.5 or more and less than 7.5 is described); 7.1 (buffering agent, temperature not given).
